As a reminder, the CC50 is the concentration that lowers cell viability or growth by half. A lower CC50 goes with greater toxicity to the cells.

Counter-ions that a name gives are not always drawn.

The nature of the first data set: in vitro. The following applies: rat, gh3-tre-luc cells, AC50 (uM) modified / 1000.
Regarding `Cc1ccc(N)cc1[N+](=O)[O-]` [4-Methyl-3-nitroaniline], the CC50 at 24 h was > 90 µM.
Turning to `Cc1ccc(C(=O)O)cc1[N+](=O)[O-]` [4-Methyl-3-nitrobenzoic acid], the half-maximal cytotoxic concentration (CC50) at 24 h was > 90 µM.
On the same count and under the same terms, the figure for `Cc1ccc(S(=O)(=O)O)cc1` [4-Methylbenzenesulfonic acid] is > 90 µM; for `Cc1ccc(C(=O)O)cc1` [4-Methylbenzoic acid] it is > 90 µM; for `Cc1ccc(C#N)cc1` [4-Methylbenzonitrile] it is > 90 µM.
Same read-out and setting: the figure for `Cc1ccc(C(=O)c2ccccc2)cc1` [4-Methylbenzophenone] is > 90 µM; for `Cc1ccc(CO)cc1` [4-Methylbenzyl alcohol] it is > 90 µM.
On the same count and under the same terms, in the case of `Cc1ccc(O)c(O)c1` [4-Methylcatechol] it was 38.5 µM; in that of `CC1CCC(CO)CC1` (stereo not shown) [4-Methylcyclohexanemethanol], > 90 µM.
Turning to `C[N+]1([O-])CCOCC1` [4-Methylmorpholine 4-oxide], the cytotoxic concentration (CC50) at 24 h is > 90 µM.
Still for that read-out and setting: the figure for `CN1CCOCC1` [4-Methylmorpholine] is > 90 µM; for `CC(C)CCCO` [4-Methylpentan-1-ol] it is > 90 µM.
On the same count and under the same terms, the figure for `Cc1ccc(OC(=O)CC(C)C)cc1` [4-Methylphenyl 3-methylbutanoate] is > 90 µM; for `Cc1ccc2c(c1)C(=O)OC2=O` [4-Methylphthalic anhydride] it is > 90 µM; for `Cc1cn[nH]c1` [4-Methylpyrazole hydrochloride] it is > 50 µM.
On the same count and under the same terms, in the case of `Cc1ccnc(N)c1` [4-Methylpyridin-2-amine] it was > 90 µM.
As to `Cc1ccncc1` [4-Methylpyridine], the half-maximal cytotoxic concentration (CC50) at 24 h is > 100 µM.
In the case of `C=Cc1ccc(C)cc1` [4-Methylstyrene], the CC50 at 24 h is > 90 µM.
Regarding `Cc1cscn1` [4-Methylthiazole], the CC50 at 24 h was > 90 µM.
The same measure, in the same setting: the figure for `O=CN1CCOCC1` [4-Morpholinecarboxaldehyde] is > 90 µM.
On the same count and under the same terms, the figure for `NCCCN1CCOCC1` [4-Morpholinepropanamine] is > 90 µM.
Turning to `O=S(=O)(O)CCCN1CCOCC1` [4-Morpholinepropanesulfonic acid], the CC50 at 24 h is > 90 µM.
The same measure, in the same setting: in the case of `Nc1ccc([N+](=O)[O-])c(N)c1` [4-Nitro-1,3-benzenediamine] it was 64.4 µM.
On the same count and under the same terms, in the case of `CC(=O)c1ccc([N+](=O)[O-])cc1` [4-Nitroacetophenone] it was > 90 µM.
The same measure, in the same setting: in the case of `Nc1ccc([N+](=O)[O-])cc1` [4-Nitroaniline] it was > 90 µM; in that of `Nc1cc([N+](=O)[O-])ccc1C(=O)O` [4-Nitroanthranilic acid], > 90 µM; in that of `O=Cc1ccc([N+](=O)[O-])cc1` [4-Nitrobenzaldehyde], > 90 µM.
With `NC(=O)c1ccc([N+](=O)[O-])cc1` [4-Nitrobenzamide], the CC50 at 24 h is > 90 µM.
On the same count and under the same terms, in the case of `O=C(O)c1ccc([N+](=O)[O-])cc1` [4-Nitrobenzoic acid] it was > 90 µM; in that of `O=C(Cl)c1ccc([N+](=O)[O-])cc1` [4-Nitrobenzoyl chloride], > 90 µM.
Same read-out and setting: in the case of `O=[N+]([O-])c1ccc(CBr)cc1` [4-Nitrobenzylbromide] it was > 100 µM.
The same measure, in the same setting: the figure for `O=C(/C=C/c1ccc([N+](=O)[O-])cc1)c1ccccc1` [4-Nitrochalcone] is > 90 µM; for `O=C(O)CNC(=O)c1ccc([N+](=O)[O-])cc1` [4-Nitrohippuric acid] it is > 90 µM; for `O=C1OC(=O)c2cc([N+](=O)[O-])ccc21` [4-Nitrophthalic anhydride] it is > 90 µM.
As to `O=C1NC(=O)c2cc([N+](=O)[O-])ccc21` [4-Nitrophthalimide], the CC50 at 24 h is > 90 µM.
In the case of `O=[N+]([O-])c1cc[n+]([O-])cc1` [4-Nitropyridine-1-oxide], the 50% cytotoxic concentration (CC50) at 24 h is > 90 µM.
Same read-out and setting: the figure for `O=Nc1ccc(O)cc1` [4-Nitrosophenol] is > 90 µM; for `CCCCC1CCC(=O)O1` (stereo not shown) [4-Octanolide] it is > 90 µM.
On to `CCCCCCCCOc1ccc(C(=O)O)cc1` [4-Octyloxybenzoic acid], for which the CC50 at 24 h was > 90 µM.
In the case of `CC(=O)CCC(=O)O` [4-Oxopentanoic acid], the CC50 at 24 h is > 100 µM.
On the same count and under the same terms, in the case of `C=CCCC#N` [4-Pentenenitrile] it was > 90 µM; in that of `C=CCCC(=O)O` [4-Pentenoic acid], > 90 µM.
Turning to `CCCCCc1ccc(N)cc1` [4-Pentylaniline], the 50% cytotoxic concentration (CC50) at 24 h is > 90 µM.
Still for that read-out and setting: the figure for `Oc1ccc(Oc2ccccc2)cc1` [4-Phenoxyphenol] is 35.8 µM; for `C1=CCC(c2ccccc2)CC1` (stereo not shown) [4-Phenyl-1-cyclohexene] it is > 90 µM; for `Cc1ccc(-c2ccccc2)cc1` [4-Phenyltoluene] it is > 90 µM.
Same read-out and setting: the figure for `CCCc1ccc(N)cc1` [4-Propylaniline] is > 90 µM; for `CCCc1ccc(OC)cc1` [4-Propylanisole] it is > 90 µM; for `CCCc1ccc(C(=O)O)cc1` [4-Propylbenzoic acid] it is > 50 µM.
Same read-out and setting: the figure for `CCCC1CCC(=O)CC1` [4-Propylcyclohexanone] is > 90 µM; for `CCCc1ccc(O)cc1` [4-Propylphenol] it is > 90 µM; for `C(=C\c1ccncc1)/c1ccccc1` [4-Styrylpyridine] it is > 50 µM.
For the molecule `O=C(O)c1ccc(S(=O)(=O)O)cc1C(=O)O` [4-Sulfophthalic acid], the CC50 at 24 h was > 90 µM.
The same measure, in the same setting: in the case of `N#Cc1cscn1` [4-Thiazolecarbonitrile] it was > 90 µM; in that of `Cc1ccc(S)cc1` [4-Thiocresol], > 90 µM; in that of `Cc1ccc(S(N)(=O)=O)cc1` [4-Toluenesulfonamide], > 90 µM.
As for `CC(=O)Oc1ccc(C)cc1` [4-Tolyl acetate], the CC50 at 24 h was > 90 µM.
For the molecule `C=CC1CC=CCC1` (stereo not shown) [4-Vinylcyclohexene], the CC50 at 24 h is > 90 µM.
The same measure, in the same setting: in the case of `C=CC(=O)OCCOC(=O)CCC(=O)O` [4-[2-(Acryloyloxy)ethoxy]-4-oxobutanoic acid] it was > 90 µM; in that of `CCCc1c(OCCCOc2ccc(OCC(=O)O)cc2)ccc(C(C)=O)c1O` [4-[3-(4-Acetyl-3-hydroxy-2-propylphenoxy)propoxy]phenoxy-acetic acid], > 90 µM; in that of `CC(C)(C)c1ccc(N)cc1` [4-tert-Butylaniline], > 90 µM.
On the same count and under the same terms, the figure for `CC(C)(C)c1ccc(C=O)cc1` [4-tert-Butylbenzaldehyde] is > 90 µM; for `CC(C)(C)c1ccc(S)cc1` [4-tert-Butylbenzenethiol] it is > 90 µM.
The same measure, in the same setting: the figure for `CC(C)(C)c1ccc(C(=O)O)cc1` [4-tert-Butylbenzoic acid] is > 90 µM; for `CC(C)(C)C1CCC(O)CC1` (stereo not shown) [4-tert-Butylcyclohexanol] it is > 90 µM.
For the molecule `CC(C)(C)C1CCC(=O)CC1` [4-tert-Butylcyclohexanone], the CC50 at 24 h was > 90 µM.
The same measure, in the same setting: in the case of `CC(=O)OC1CCC(C(C)(C)C)CC1` (stereo not shown) [4-tert-Butylcyclohexyl acetate] it was > 90 µM; in that of `CC(C)(C)c1ccc(OC(=O)c2ccccc2O)cc1` [4-tert-Butylphenyl salicylate], > 90 µM; in that of `C=Cc1ccc(C(C)(C)C)cc1` [4-tert-Butylstyrene], > 90 µM.
Same read-out and setting: the figure for `Cc1ccc(C(C)(C)C)cc1` [4-tert-Butyltoluene] is > 90 µM; for `N#Cc1ccc(CC(=O)c2cccc(C(F)(F)F)c2)cc1` [4-{2-Oxo-2-[3-(trifluoromethyl)phenyl]ethyl}benzonitrile] it is > 90 µM.

The data set is the same for the next values; noted with them: rat, gh3-tre-luc cells, AC50 (uM) modified / 1000, Tox21_110001=Tox21_200517; viability, 1 nM T3 present, 24 h.
As to `Cc1ccc(N)cc1` [4-Methylaniline hydrochloride], the CC50 at 24 h was > 90 µM.

The same data set, now with this note: rat, gh3-tre-luc cells, AC50 (uM) modified / 1000, Tox21_110001=Tox21_200572; viability, 1 nM T3 present, 24 h.
As for `O=[N+]([O-])c1ccc(CCl)cc1` [4-Nitrobenzyl chloride], the 50% cytotoxic concentration (CC50) at 24 h was > 90 µM.

The same data set, now with this note: rat, gh3-tre-luc cells, AC50 (uM) modified / 1000, Tox21_110001=Tox21_201048; viability, 1 nM T3 present, 24 h.
For `Cc1c[nH]cn1` [4-Methylimidazole], the CC50 at 24 h was > 90 µM.

Still in this data set, the particulars now being: rat, gh3-tre-luc cells, AC50 (uM) modified / 1000, Tox21_110001=Tox21_201464; viability, 1 nM T3 present, 24 h.
For the molecule `Cc1ccc([N+](=O)[O-])cc1` [4-Nitrotoluene], the CC50 at 24 h was > 90 µM.

Staying with this data set, now noted: rat, gh3-tre-luc cells, AC50 (uM) modified / 1000, Tox21_110001=Tox21_201505; viability, 1 nM T3 present, 24 h.
As for `C1CC2OC2CC1C1CO1` (stereo not shown) [4-Vinyl-1-cyclohexene dioxide], the CC50 at 24 h is > 90 µM.

Still in this data set, the particulars now being: rat, gh3-tre-luc cells, AC50 (uM) modified / 1000, Tox21_110001=Tox21_202080; viability, 1 nM T3 present, 24 h.
Take `CC(=O)C=C(C)C` [4-Methylpent-3-en-2-one]: the CC50 at 24 h is > 100 µM.

The same data set, now with this note: rat, gh3-tre-luc cells, AC50 (uM) modified / 1000, Tox21_110001=Tox21_202220; viability, 1 nM T3 present, 24 h.
As to `Oc1ccc(-c2ccccc2)cc1` [4-Phenylphenol], the CC50 at 24 h is 62.2 µM. In other words, the double-digit micromolar range.

The same data set, now with this note: rat, gh3-tre-luc cells, AC50 (uM) modified / 1000, Tox21_110001=Tox21_300741; viability, 1 nM T3 present, 24 h.
Turning to `N#Cc1ccncc1` [4-Pyridinecarbonitrile], the 50% cytotoxic concentration (CC50) at 24 h is > 100 µM.

Still in this data set, the particulars now being: rat, gh3-tre-luc cells, AC50 (uM) modified / 1000, Tox21_110001=Tox21_302624; viability, 1 nM T3 present, 24 h.
`CC1CCC(=O)O1` (stereo not shown) [4-Pentanolide]: the CC50 at 24 h is > 90 µM.

The same data set, now with this note: rat, gh3-tre-luc cells, AC50 (uM) modified / 1000, Tox21_110001=Tox21_302734; viability, 1 nM T3 present, 24 h.
Consider `Oc1ccc(-c2ccccc2)cc1` [4-Phenylphenol], for which the cytotoxic concentration (CC50) at 24 h was > 90 µM.

The same data set, now with this note: rat, gh3-tre-luc cells, AC50 (uM) modified / 1000, Tox21_110001=Tox21_303606; viability, 1 nM T3 present, 24 h.
With `CC(=O)C=C(C)C` [4-Methylpent-3-en-2-one], the CC50 at 24 h is > 90 µM.

Source of the values: PMC6792352, “Limited Chemical Structural Diversity Found to Modulate Thyroid Hormone Receptor in the Tox21 Chemical Library” (Environmental Health Perspectives, 2019).
